This note sets out measurements from ChEMBL document CHEMBL1130596, “A high affinity, mu-opioid receptor-selective enkephalin analogue lacking an N-terminal tyrosine” (Bioorg Med Chem Lett, 1998).

pKi: −log10 of the molar value. Starred links: 1 amine or outer side, 2 acyl side, 3 side chain; linkers in the order of their positions; H or OH if unused. Positions of bridges follow the written chain, without caps; N, C: chain ends. Non-standard residues stand in square brackets, D forms with d. Residues, ends and D or L forms follow the SMILES beside them. dPen = CC(C)(S)[C@@H](N)C(=O)O; Pen = CC(C)(S)[C@H](N)C(=O)O; CH2CH2 = C(C[*:2])[*:1]

For one experiment, the target named is Mu-type opioid receptor (Cavia porcellus, UniProt P97266). Kind of experiment: Binding affinity against mu opioid receptor.
Experiment [1] in a line: Binding affinity against Opioid receptor delta 1.
The target in experiment [2] is Opioid receptors; mu/kappa/delta (Homo sapiens, UniProt P41145+P41143+P35372). Put plainly: Agonistic activity tested in vitro in guinea pig ileum opioid. It is filed as functional, tissue-based, Cavia porcellus. Conditions: target entry is the homologue from another species.

Sequence of Mu-type opioid receptor (P97266 whole entry): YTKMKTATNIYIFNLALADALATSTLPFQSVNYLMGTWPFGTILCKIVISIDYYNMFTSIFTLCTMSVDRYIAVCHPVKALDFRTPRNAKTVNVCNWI

Take `CC1(C)SSC[C@@H](NC(=O)[C@@H](N)Cc2ccccc2)C(=O)N[C@@H](Cc2ccccc2)C(=O)N[C@H]1C(=O)O`: the pKi at Mu-type opioid receptor is 6.21. `CC1(C)SSC[C@H](NC(=O)[C@@H](N)Cc2ccc(O)cc2)C(=O)N[C@@H](Cc2ccccc2)C(=O)N[C@@H]1C(=O)O` (H-YCF[Pen]-OH; disulfide 2-4) gave a pKi in experiment [1] of 9.13. On to `C[C@@H](NC(=O)[C@@H](N)Cc1ccc(O)cc1)C(=O)NCC(=O)N(C)[C@@H](Cc1ccccc1)C(=O)NCCO` [DAMGO], for which the negative-log Ki (pKi) at Mu-type opioid receptor was 9.00.

Consider `CC1(C)SCCSC[C@@H](NC(=O)[C@@H](N)Cc2ccc(O)cc2)C(=O)N[C@@H](Cc2ccccc2)C(=O)N[C@H]1C(N)=O` (H-Y[dC]F[dPen]-NH2; linker 2-4 via CH2CH2), for which, at Mu-type opioid receptor, the pKi is 9.54. As for `CC1(C)SCCSC[C@@H](NC(=O)[C@@H](N)Cc2ccccc2)C(=O)N[C@@H](Cc2ccccc2)C(=O)N[C@H]1C(N)=O`, the pKi on Mu-type opioid receptor is 8.87. This compound yielded an IC50 in experiment [2] of 9.1 nM.
